pIC50: −log10 of the molar value.
Molecular target: USP14 (Homo sapiens (Human), UniProt P54578)
Assay: Usp14 inhibition assay (Example 5A, A-series compounds)
Assay type: biochemical
Details: average value from a minimum of two experimental determinations; read-out: Usp14 IC50 Category
Description: Example 5A: Usp14 Inhibition Assay
The IC50 values in the Table below represent the average value from a minimum of two experimental determinations.

USP14, sequence (P54578 whole entry, looked up): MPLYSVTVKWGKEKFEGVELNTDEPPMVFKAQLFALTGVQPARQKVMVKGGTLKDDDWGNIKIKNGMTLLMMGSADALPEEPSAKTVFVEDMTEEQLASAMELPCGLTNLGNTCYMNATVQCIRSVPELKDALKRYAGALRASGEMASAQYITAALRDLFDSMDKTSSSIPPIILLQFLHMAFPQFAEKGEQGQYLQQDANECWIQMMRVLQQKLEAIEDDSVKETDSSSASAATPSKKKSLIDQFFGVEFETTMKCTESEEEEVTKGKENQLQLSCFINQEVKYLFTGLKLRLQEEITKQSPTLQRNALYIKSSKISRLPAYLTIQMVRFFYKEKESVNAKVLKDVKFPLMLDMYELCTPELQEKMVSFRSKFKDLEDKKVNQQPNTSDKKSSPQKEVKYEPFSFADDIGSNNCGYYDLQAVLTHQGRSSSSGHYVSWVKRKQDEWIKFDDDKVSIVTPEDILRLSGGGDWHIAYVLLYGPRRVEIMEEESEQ

SMILES | pIC50
Cc1c(C(=O)CN2C3CCC2CC3)c2ccc(CCCC#N)cc2n1-c1ccc(Cl)cc1 [Example 17A, 4-(3-(2-(7-Azabicyclo[2.2.1]heptan-7-yl)acetyl)-1-(4-chlorophenyl)-2-methyl-1H-indol-6-yl)butanenitrile] | > 7.30
Cc1c(C(=O)CN2C3CCC2CC(O)C3)c2ccc(CCC#N)cc2n1-c1ccc(Cl)cc1 [Example 20A, 3-(1-(4-Chlorophenyl)-3-(2-((1R,3R,5S)-3-hydroxy-8-azabicyclo[3.2.1]octan-8-yl)acetyl)-2-methyl-1H-indol-6-yl)propanenitrile] | < 7.00
Cc1c(C(=O)CN2[C@@H]3CC[C@H]2C[C@H](O)C3)c2ccc(CCC#N)cc2n1-c1ccc(Cl)cc1 [Example 21A, 3-(1-(4-Chlorophenyl)-3-(2-((1R,3S,5S)-3-hydroxy-8-azabicyclo[3.2.1]octan-8-yl)acetyl)-2-methyl-1H-indol-6-yl)propanenitrile] | 7.00 to 7.30
Cc1c(C(=O)CN2[C@@H]3CC[C@H]2C[C@@H](O)C3)c2ccc(CC3COC3)cc2n1-c1ccc(Cl)cc1 [Example 22A, 1-(1-(4-Chlorophenyl)-2-methyl-6-(oxetan-3-ylmethyl)-1H-indol-3-yl)-2-((1R,3r,5S)-3-hydroxy-8-azabicyclo[3.2.1]octan-8-yl)ethan-1-one] | 7.00 to 7.30
Cc1c(C(=O)CN2C3CCC2CC(O)C3)c2ccc(CCS(=O)(=O)C3CC3)cc2n1-c1ccc(Cl)cc1 [Example 23A, 1-(1-(4-Chlorophenyl)-6-(2-(cyclopropylsulfonyl)ethyl)-2-methyl-1H-indol-3-yl)-2-((1R,3R,5S)-3-hydroxy-8-azabicyclo[3.2.1]octan-8-yl)ethan-1-one] | > 7.30
Cc1c(C(=O)CN2[C@@H]3CC[C@H]2C[C@H](O)C3)c2ccc(CCS(=O)(=O)C3CC3)cc2n1-c1ccc(Cl)cc1 [Example 24A, 1-(1-(4-Chlorophenyl)-6-(2-(cyclopropylsulfonyl)ethyl)-2-methyl-1H-indol-3-yl)-2-((1R,3s,5S)-3-hydroxy-8-azabicyclo[3.2.1]octan-8-yl)ethan-1-one] | 7.00 to 7.30
Cc1c(C(=O)CN2C3CCC2CC(O)C3)c2ccc(CCCC#N)cc2n1-c1ccc(Cl)cc1 (stereo not shown) [Example 25A, 4-(1-(4-Chlorophenyl)-3-(2-(3-hydroxy-8-azabicyclo[3.2.1]octan-8-yl)acetyl)-2-methyl-1H-indol-6-yl)butanenitrile] | < 7.00
Cc1c(C(=O)CN2C3CCC2CC(O)C3)c2ccc(CC3COC3)cc2n1-c1ccc(Cl)cc1 [Example 27A, 1-(1-(4-Chlorophenyl)-2-methyl-6-(oxetan-3-ylmethyl)-1H-indol-3-yl)-2-((1R,3S,5S)-3-hydroxy-8-azabicyclo[3.2.1]octan-8-yl)ethan-1-one] | < 7.00
Cc1c(C(=O)CN2[C@@H]3CC[C@H]2C[C@H](O)C3)c2ccc(CCC3=NCCN3C)cc2n1-c1ccc(Cl)cc1 [Example 28A, 1-(1-(4-Chlorophenyl)-2-methyl-6-(2-(1-methyl-4,5-dihydro-1H-imidazol-2-yl)ethyl)-1H-indol-3-yl)-2-((1R,3S,5S)-3-hydroxy-8-azabicyclo[3.2.1]octan-8-yl)ethan-1-one] | > 7.30
Cc1c(C(=O)CN2C3CCC2CC(O)C3)c2ccc(CCC3=NCCN3C)cc2n1-c1ccc(Cl)cc1 [Example 29A, 1-(1-(4-Chlorophenyl)-2-methyl-6-(2-(1-methyl-4,5-dihydro-1H-bimidazol-2-yl)ethyl)-1H-indol-3-yl)-2-((1R,3R,5S)-3-hydroxy-8-azabicyclo[3.2.1]octan-8-yl)ethan-1-one] | > 7.30
Cc1c(C(=O)CN2C3CCC2CC3)c2ccc(CC#N)cc2n1-c1ccc(Cl)cc1 [Example 30A] | 7.00 to 7.30
Cc1c(C(=O)CN2[C@@H]3CC[C@H]2C[C@](O)(C(C)C)C3)c2ccc(CCC#N)cc2n1-c1ccc(Cl)cc1 [Example 32A, 3-(1-(4-Chlorophenyl)-3-(2-(3-hydroxy-3-isopropyl-8-azabicyclo[3.2.1]octan-8-yl)acetyl)-2-methyl-1H-indol-6-yl)propanenitrile] | 7.00 to 7.30
Cc1c(C(=O)CN2C3CCCC2CC3)c2ccc(CCC#N)cc2n1-c1ccc(Cl)cc1 [Example 33A, 3-(3-(2-(8-Azabicyclo[3.2.1]octan-8-yl)acetyl)-1-(4-chlorophenyl)-2-methyl-1H-indol-6-yl)propanenitrile] | > 7.30
